Measured values from patent publication US5538987A, “Imidazole ethers having a II antagonist activity” (Istituto Luso Farmaco D'Italia S.p.A., priority 1992, dated 1996).

Legend:
A II receptor [1] = target: T1, A II receptor (Oryctolagus cuniculus, UniProt P34976); test: inhibition of the A II-induced contraction in the rabbit aorta; assay type: cell-based; details: in vitro, read-out: pA2 (converted)
T1 construct: A II-induced contraction in the rabbit aorta; from tissue; host or cells: rabbit aorta
T1 sequence (P34976 1-359): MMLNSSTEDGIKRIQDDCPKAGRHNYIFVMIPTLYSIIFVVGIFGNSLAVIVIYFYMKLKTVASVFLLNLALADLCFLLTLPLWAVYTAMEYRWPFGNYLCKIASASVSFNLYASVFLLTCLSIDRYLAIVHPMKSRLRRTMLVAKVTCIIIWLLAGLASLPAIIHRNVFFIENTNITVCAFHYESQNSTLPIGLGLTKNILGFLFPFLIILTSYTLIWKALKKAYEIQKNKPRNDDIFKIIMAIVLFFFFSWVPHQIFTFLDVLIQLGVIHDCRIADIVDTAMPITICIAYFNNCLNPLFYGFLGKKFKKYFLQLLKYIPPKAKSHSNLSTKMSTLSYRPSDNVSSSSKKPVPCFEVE
Description: (§1) The compounds described in the present invention act as antagonists at the A II receptor level.
(§2) For the characterization and the evaluation of the effectiveness of the compounds of the invention, in vitro tests (such as the inhibition of the A II-induced contraction in the rabbit aorta and the displacement of ^125 I-Sar^1 -Ile^8 -AT II or [^3 H] AT II in the rat adrenal cortex) and an in vivo test (the inhibition of the A II-induced pressory response in the ganglio-blocked normotensive rat) were selected.

A II receptor [2] = test: receptor binding test: displacement of 125I-Sar1-Ile8-AT II or [3H] AT II in the rat adrenal cortex
Description: as §1, §2

Kb (A II receptor [1])	Ki (A II receptor [2])	Structure (SMILES)
1.26 nM	3.2 nM	CCCCc1nc(Cl)c(COCc2occc2C(=O)O)n1Cc1ccc(-c2ccccc2-c2nnn[nH]2)cc1 [2-butyl-5-[(3-carboxyfuran-2-yl)methoxymethyl]-4-chloro-1-[[2'-(1H-tetrazol-5-yl)-1,1'-biphenyl-4-yl]methyl]-1H-imidazole]
0.2 nM	4.4 nM	CCCCc1nc(Cl)c(COCc2ccccc2C(=O)O)n1Cc1ccc(-c2ccccc2-c2nnn[nH]2)cc1 [ex. 18, 2-butyl-5-[(2-carboxyphenyl)methoxymethyl]-4-chloro-1-[[2'-(1H-tetrazol-5-yl)-1,1'-biphenyl-4-yl]methyl]-1H-imidazole]
